Test results taken from US20260159533A1, “INHIBITORS OF COMPLEMENT FACTORS AND USES THEREOF” (Annexon, Inc., priority 2022, published 2026).
Counter-ions that a name gives are not always drawn.

Target: T1, human C1s protein (Homo sapiens, UniProt P09871)
T1 construct: purchased R&D Systems or Complement Technologies 2060-SE or A104
T1 sequence (P09871 16-688): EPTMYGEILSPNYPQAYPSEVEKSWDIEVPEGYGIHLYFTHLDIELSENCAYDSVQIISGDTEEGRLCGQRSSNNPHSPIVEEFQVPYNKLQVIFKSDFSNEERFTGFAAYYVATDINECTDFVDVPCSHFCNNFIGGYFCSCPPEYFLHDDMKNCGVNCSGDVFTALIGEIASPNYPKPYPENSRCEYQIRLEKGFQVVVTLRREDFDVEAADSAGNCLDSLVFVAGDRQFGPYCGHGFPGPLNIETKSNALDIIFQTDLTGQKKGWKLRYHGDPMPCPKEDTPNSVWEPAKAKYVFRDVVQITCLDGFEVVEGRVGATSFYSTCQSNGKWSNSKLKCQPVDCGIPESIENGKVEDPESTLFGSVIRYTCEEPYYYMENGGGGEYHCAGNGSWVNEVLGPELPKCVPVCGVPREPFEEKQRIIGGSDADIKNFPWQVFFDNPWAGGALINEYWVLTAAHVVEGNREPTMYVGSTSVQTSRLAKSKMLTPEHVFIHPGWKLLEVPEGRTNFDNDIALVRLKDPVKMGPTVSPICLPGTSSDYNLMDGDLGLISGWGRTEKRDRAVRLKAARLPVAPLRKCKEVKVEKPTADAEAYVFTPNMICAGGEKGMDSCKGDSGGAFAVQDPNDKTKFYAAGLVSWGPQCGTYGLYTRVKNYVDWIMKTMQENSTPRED
Experiment: recombinant C1s enzymatic assay (YLGR-Rh110-dPro substrate hydrolysis, fluorescence)
Type: biochemical
Conditions: recombinant human C1s 2.5 nM, substrate YLGR-Rh110-dPro 20 μM, 15 min pre-incubation, 60 min RT; read-out: rec. hC11s pIC50 (converted)
Description: Compound testing in the purified or recombinant C1s enzymatic assay C1s is a serine protease; its enzymatic activity is measured in vitro by the hydrolysis of the synthetic substrate YLGR-Rh110-dPro (Kerr F K, O'Brien G, Quinsey N S, Whisstock J C, Boyd S, de la Banda M G, Kaiserman D, Matthews A Y, Bird P I, Pike R N. Elucidation of the substrate specificity of the Cis protease of the classical complement pathway. J. Biol. Chem. (2005) 280, 39510-39514). The enzyme cleaves the substrate with the release of Rh110 which is highly fluorescent. Cis inhibitors prevent the hydrolysis of the substrate thus resulting in a decrease of the signal.
The recombinant C1s enzymatic assay is performed using the human C1s protein (R&D Systems, 2060-SE or Complement Technologies, A104). The assay buffer composition is: 50 mM HEPES pH 7.5 (Sigma, H3375), 150 mM NaCl (Sigma, S7653), 0.2% PEG 8000 (VWR, AA43443-22), 0.01% Pluronic F127 (Sigma, P2243). On the day of the experiment 0.1 mg/mL BSA (Sigma, B4287) is added fresh to the buffer. The test item stock solutions are serially diluted 1:3 or 1:4 or 1:5 with DMSO, 11-point curves, in a 384-well compound plate. Nafamostat concentration curve is always included in the assay plate as a reference control.
The assay plate is prepared by dispensing 0.25 μL from compound plate into a 384-well black assay plate (assay plate, Greiner Fluotrac 200, 781076, VWR 736-0140). The high controls are prepared dispensing in 0.25 μL DMSO in column 23, rows AH or AP and low controls with 0.25 μL of 0.1 μM Nafamostat. Cis solution is prepared as 2× of the 2.5 nM final assay concentration. The YLGR-Rh110-dPro substrate is prepared as 2× of the final assay concentration of 20 μM. 5 μL/well of 2× enzyme solution is dispensed and pre-incubated for 15 min with the compounds. The enzymatic reaction is the started with 5 μL/well of the 2× substrate solution. The plate is incubated for 60 min RT in the dark and fluorescence is measured (ex 485/em 535 nm) using an Envision (PerkinElmer) or an equivalent instrument.

**Q.** With CC1COc2cc(-n3cccn3)c(-c3ccc4c(N)cnnc4c3)cc2B(O)O1 (single isomer, unassigned; enantiomer 1) [Example 72, 7-(1-hydroxy-3-methyl-7-pyrazol-1-yl-3,4-dihydro-2,5,1-benzodioxaborepin-8-yl)cinnolin-4-amine enantiomer 1] as the molecule, how does the IC50 read?
**A.** 1.7 nM

**Q.** For CC1COc2cc(-n3cccn3)c(-c3ccc4c(N)cnnc4c3)cc2B(O)O1 (single isomer, unassigned; enantiomer 2) [Example 73, 7-(1-hydroxy-3-methyl-7-pyrazol-1-yl-3,4-dihydro-2,5,1-benzodioxaborepin-8-yl)cinnolin-4-amine enantiomer 2], which IC50 is on record?
**A.** 1.51 nM

**Q.** Nc1cnnc2cc(-c3cc(B(O)O)ccc3-n3cccn3)ccc12 [Example 1, [3-(4-aminocinnolin-7-yl)-4-(1H-pyrazol-1-yl)phenyl]boronic acid] was tested. Which IC50 did it give?
**A.** 3.24 nM

**Q.** With CNC(=O)c1cnn(-c2ccc(B(O)O)cc2-c2ccc3c(N)cnnc3c2)c1 [Example 2, [3-(4-aminocinnolin-7-yl)-4-[4-(methylcarbamoyl)-1H-pyrazol-1-yl]phenyl]boronic acid formic acid salt] as the molecule, how does the IC50 read?
**A.** 3.89 nM

**Q.** Which IC50 does the source give for Nc1cnnc2cc(-c3cc(B(O)O)ccc3-n3ccnc3)ccc12 [Example 3, [3-(4-aminocinnolin-7-yl)-4-(1H-imidazol-1-yl)phenyl]boronic acid] here?
**A.** 66.1 nM

**Q.** Which IC50 does the source give for COC(=O)c1cn(-c2ccc(B(O)O)cc2-c2ccc3c(N)cnnc3c2)cn1 [Example 4, [3-(4-aminocinnolin-7-yl)-4-[4-(methoxycarbonyl)-1H-imidazol-1-yl]phenyl]boronic acid] here?
**A.** 38.9 nM

**Q.** How did the IC50 turn out when Nc1cnnc2cc(-c3cc(B(O)O)ccc3-n3cncn3)ccc12 [Example 5, [3-(4-aminocinnolin-7-yl)-4-(1H-1,2,4-triazol-1-yl)phenyl]boronic acid formic acid salt] was run?
**A.** 1.32 nM

**Q.** For CNC(=O)c1ccn(-c2ccc(B(O)O)cc2-c2ccc3c(N)cnnc3c2)n1 [Example 6, [3-(4-aminocinnolin-7-yl)-4-[3-(methylcarbamoyl)-1H-pyrazol-1-yl]phenyl]boronic acid], which IC50 is on record?
**A.** 29.5 nM

**Q.** Which IC50 does the source give for Nc1cnnc2cc(-c3cc(B(O)O)ccc3-c3cc[nH]n3)ccc12 [Example 7, [3-(4-aminocinnolin-7-yl)-4-(1H-pyrazol-3-yl)phenyl]boronic acid] here?
**A.** 2.63 nM

**Q.** For Cc1cc(-n2cccn2)c(-c2ccc3c(N)cnnc3c2)cc1B(O)O [Example 8, [5-(4-aminocinnolin-7-yl)-2-methyl-4-(1H-pyrazol-1-yl)phenyl]boronic acid], which IC50 is on record?
**A.** 14.8 nM

**Q.** With Nc1cnnc2cc(-c3cc(B(O)O)ccc3-n3cc(C(F)F)cn3)ccc12 [Example 9, [3-(4-aminocinnolin-7-yl)-4-[4-(difluoromethyl)-1H-pyrazol-1-yl]phenyl]boronic acid] as the molecule, how does the IC50 read?
**A.** 1.74 nM

**Q.** Which IC50 does the source give for CC(=O)Nc1cnn(-c2ccc(B(O)O)cc2-c2ccc3c(N)cnnc3c2)c1 [Example 10, [3-(4-aminocinnolin-7-yl)-4-(4-acetamido-1H-pyrazol-1-yl)phenyl]boronic acid formic acid salt] here?
**A.** 1.78 nM

**Q.** With Nc1cnnc2cc(-c3cc(B(O)O)ccc3-n3cc(F)cn3)ccc12 [Example 11, [3-(4-aminocinnolin-7-yl)-4-(4-fluoro-1H-pyrazol-1-yl)phenyl]boronic acid formic acid salt] as the molecule, how does the IC50 read?
**A.** 1.45 nM

**Q.** With Nc1cnnc2cc(-c3cc(B(O)O)ccc3-n3ncnn3)ccc12 [Example 12, [3-(4-aminocinnolin-7-yl)-4-(2H-1,2,3,4-tetrazol-2-yl)phenyl]boronic acid] as the molecule, how does the IC50 read?
**A.** 0.589 nM

**Q.** Which IC50 does the source give for Nc1cnnc2cc(-c3cc(B(O)O)cnc3-n3cccn3)ccc12 [Example 13, [5-(4-aminocinnolin-7-yl)-6-(1H-pyrazol-1-yl)pyridin-3-yl]boronic acid] here?
**A.** 4.47 nM

**Q.** Which IC50 does the source give for Nc1cnnc2cc(-c3cc(B(O)O)ccc3-n3ccc(C(F)F)n3)ccc12 [Example 14, [3-(4-aminocinnolin-7-yl)-4-[3-(difluoromethyl)-1H-pyrazol-1-yl]phenyl]boronic acid formic acid salt] here?
**A.** 14.8 nM

**Q.** How did the IC50 turn out when Nc1cnnc2cc(-c3cc(B(O)O)ccc3-n3nccn3)ccc12 [Example 15, [3-(4-aminocinnolin-7-yl)-4-(2H-1,2,3-triazol-2-yl)phenyl]boronic acid formic acid salt] was run?
**A.** 0.933 nM

**Q.** How did the IC50 turn out when Nc1cnnc2cc(-c3cc(B(O)O)ccc3-n3ccnn3)ccc12 [Example 16, [3-(4-aminocinnolin-7-yl)-4-(1H-1,2,3-triazol-1-yl)phenyl]boronic acid] was run?
**A.** 3.98 nM

**Q.** How did the IC50 turn out when N#Cc1ccn(-c2ccc(B(O)O)cc2-c2ccc3c(N)cnnc3c2)n1 [Example 17, [3-(4-aminocinnolin-7-yl)-4-(3-cyano-1H-pyrazol-1-yl)phenyl]boronic acid] was run?
**A.** 6.31 nM

**Q.** How did the IC50 turn out when Cc1nc(-c2ccc(B(O)O)cc2-c2ccc3c(N)cnnc3c2)ns1 [Example 18, [3-(4-aminocinnolin-7-yl)-4-(5-methyl-1,2,4-thiadiazol-3-yl)phenyl]boronic acid] was run?
**A.** 1.62 nM

**Q.** Which IC50 does the source give for Nc1cnnc2cc(-c3cc(B(O)O)ccc3-c3cc(C(F)(F)F)[nH]n3)ccc12 [Example 19, [3-(4-aminocinnolin-7-yl)-4-[5-(trifluoromethyl)-1H-pyrazol-3-yl]phenyl]boronic acid] here?
**A.** 34.7 nM

**Q.** Nc1cnnc2cc(-c3cc(B(O)O)ccc3-c3nc[nH]n3)ccc12 [Example 20, [3-(4-aminocinnolin-7-yl)-4-(1H-1,2,4-triazol-3-yl)phenyl]boronic acid] was tested. Which IC50 did it give?
**A.** 0.776 nM

**Q.** For CS(=O)(=O)Nc1cnn(-c2ccc(B(O)O)cc2-c2ccc3c(N)cnnc3c2)c1 [Example 21, [3-(4-aminocinnolin-7-yl)-4-(4-methanesulfonamido-1H-pyrazol-1-yl)phenyl]boronic acid], which IC50 is on record?
**A.** 1.86 nM

**Q.** With N#Cc1ccnn1-c1ccc(B(O)O)cc1-c1ccc2c(N)cnnc2c1 [Example 22, [3-(4-aminocinnolin-7-yl)-4-(5-cyano-1H-pyrazol-1-yl)phenyl]boronic acid] as the molecule, how does the IC50 read?
**A.** 0.851 nM

**Q.** With COc1cc(-n2cccn2)c(-c2ccc3c(N)cnnc3c2)cc1B(O)O [Example 23, [5-(4-aminocinnolin-7-yl)-2-methoxy-4-(1H-pyrazol-1-yl)phenyl]boronic acid] as the molecule, how does the IC50 read?
**A.** 1.07 nM

**Q.** For Nc1cnnc2cc(-c3cc(B(O)O)ccc3-c3nccs3)ccc12 [Example 24, [3-(4-aminocinnolin-7-yl)-4-(1,3-thiazol-2-yl)phenyl]boronic acid formic acid salt], which IC50 is on record?
**A.** 2.57 nM

**Q.** For Nc1cnnc2cc(-c3cc(B(O)O)ccc3-c3ncco3)ccc12 [Example 25, [3-(4-aminocinnolin-7-yl)-4-(1,3-oxazol-2-yl)phenyl]boronic acid formic acid salt], which IC50 is on record?
**A.** 0.912 nM

**Q.** With Nc1cnnc2cc(-c3cc(B(O)O)ccc3-c3ncccn3)ccc12 [Example 26, [3-(4-aminocinnolin-7-yl)-4-(pyrimidin-2-yl)phenyl]boronic acid formic acid salt] as the molecule, how does the IC50 read?
**A.** 7.24 nM

**Q.** Nc1cnnc2cc(-c3cc(B(O)O)c(OC(F)F)cc3-n3cccn3)ccc12 [Example 27, [5-(4-aminocinnolin-7-yl)-2-(difluoromethoxy)-4-(1H-pyrazol-1-yl)phenyl]boronic acid formic acid salt] was tested. Which IC50 did it give?
**A.** 4.47 nM

**Q.** COc1cnn(-c2ccc(B(O)O)cc2-c2ccc3c(N)cnnc3c2)c1 [Example 28, [3-(4-aminocinnolin-7-yl)-4-(4-methoxy-1H-pyrazol-1-yl)phenyl]boronic acid formic acid salt] was tested. Which IC50 did it give?
**A.** 2.19 nM
